Source: patent publication US12378231B2, “Small molecules as monoacylglycerol lipase (MAGL) inhibitors, compositions and use thereof” (APOGEE PHARMACEUTICALS, INC., priority 2023, dated 2025)
Read-outs that look alike come from different tables or passages of the source.

Tests used:
human recombinant MAGL = human recombinant MAGL (Homo sapiens (Human), UniProt Q99685); test: In vitro inhibition of human recombinant MAGL activity (Cayman inhibitor screening kit, 4-nitrophenylacetate hydrolysis); type: biochemical
Sequence of human recombinant MAGL (Q99685 whole entry): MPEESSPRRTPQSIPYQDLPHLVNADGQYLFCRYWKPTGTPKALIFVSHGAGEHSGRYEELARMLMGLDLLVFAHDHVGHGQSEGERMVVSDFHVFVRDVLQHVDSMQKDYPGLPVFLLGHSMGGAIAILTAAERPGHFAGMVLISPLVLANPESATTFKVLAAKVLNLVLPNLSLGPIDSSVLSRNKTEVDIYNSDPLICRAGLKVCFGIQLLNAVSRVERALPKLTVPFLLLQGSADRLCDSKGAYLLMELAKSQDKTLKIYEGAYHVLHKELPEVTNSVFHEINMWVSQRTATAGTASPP
Text: The inhibitory effect of the synthetic chemicals on activity of human recombinant MAGL was studied using commercial inhibitor screening kit (Cayman Chemical). […] The absorbance of the yellow product can be analyzed using the plate reader. […]

human recombinant FAAH = human recombinant FAAH (Homo sapiens (Human), UniProt O00519); test: In vitro inhibition of human recombinant FAAH activity (Cayman FAAH inhibitor screening kit, AMC arachidonoyl amide hydrolysis); type: biochemical
Sequence of human recombinant FAAH (O00519 whole entry): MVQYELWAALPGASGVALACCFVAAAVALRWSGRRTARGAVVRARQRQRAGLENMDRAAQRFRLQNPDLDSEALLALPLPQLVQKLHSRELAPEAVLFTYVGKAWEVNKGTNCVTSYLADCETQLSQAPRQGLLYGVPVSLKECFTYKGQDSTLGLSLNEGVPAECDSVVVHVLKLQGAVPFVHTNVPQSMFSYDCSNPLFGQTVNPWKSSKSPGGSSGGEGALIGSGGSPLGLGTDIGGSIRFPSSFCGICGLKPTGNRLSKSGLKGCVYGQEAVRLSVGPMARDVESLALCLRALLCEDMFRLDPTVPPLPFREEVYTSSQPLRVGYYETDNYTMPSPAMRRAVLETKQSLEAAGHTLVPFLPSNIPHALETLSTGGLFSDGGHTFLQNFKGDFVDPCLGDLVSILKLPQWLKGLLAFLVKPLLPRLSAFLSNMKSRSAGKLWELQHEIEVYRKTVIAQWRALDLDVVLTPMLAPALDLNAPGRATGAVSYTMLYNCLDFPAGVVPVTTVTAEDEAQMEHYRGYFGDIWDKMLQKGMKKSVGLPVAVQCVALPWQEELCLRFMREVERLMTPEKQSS
Text: In brief, FAAH hydrolyzes AMC arachidonoyl amide resulting in the release of the fluorescent product, while the inhibitor will inhibit the FAAH activity and thus reduce the fluorescent signal.

[1] = human recombinant MAGL, read-out: Inhibition on MAGL activity (IC50)

| Compound | IC50 (human recombinant MAGL; [1]) | IC50 (human recombinant FAAH) | IC50 (human recombinant MAGL) |
| --- | --- | --- | --- |
| 1-(4-((2,3-dihydrobenzo[b][1,4]dioxin-6-yl)(4-methoxyphenyl)methyl)piperazine-1-carbonyl)-1H-benzo[d][1,2,3]triazole-6-carbonitrile and 1-(4-((2,3-dihydrobenzo[b][1,4]dioxin-6-yl)(4-methoxyphenyl)methyl)piperazine-1-carbonyl)-1H-benzo[d][1,2,3]triazole-5-carbonitrile [Example 106] | 1 to 10 nM | ~10000 nM |  |
| 1-(4-((4-methoxyphenyl)(pyridin-3-yl)methyl)piperazine-1-carbonyl)-1H-benzo[d][1,2,3]triazole-6-carbonitrile and 1-(4-((4-methoxyphenyl)(pyridin-3-yl)methyl)piperazine-1-carbonyl)-1H-benzo[d][1,2,3]triazole-5-carbonitrile [Example 103] | 1 to 10 nM | 1000 to 10000 nM |  |
| 1-(4-(bis(2,3-dihydrobenzo[b][1,4]dioxin-6-yl)methyl)piperazine-1-carbonyl)-1H-benzo[d][1,2,3]triazole-6-carbonitrile and 1-(4-(bis(2,3-dihydrobenzo[b][1,4]dioxin-6-yl)methyl)piperazine-1-carbonyl)-1H-benzo[d][1,2,3]triazole-5-carbonitrile [Example 91] | 1 to 10 nM | > 50000 nM |  |
| O=C(OC(C(F)(F)F)C(F)(F)F)N1CCN(Cc2ccc(C(F)(F)F)cc2N2CCCC2)CC1 [ABX-1431] |  | > 50000 nM |  |
| O=C(OC(C(F)(F)F)C(F)(F)F)N1CCN(C(c2ccc3c(c2)COCO3)c2ccc3c(c2)COCO3)CC1 [Example 3, 1,1,1,3,3,3-hexafluoropropan-2-yl 4-(bis(4H-benzo[d][1,3]dioxin-6-yl)methyl)piperazine-1-carboxylate] | 1 to 20 nM | > 50000 nM |  |
| O=C(Oc1ccc([N+](=O)[O-])cc1)N1CCN(C(c2ccc3c(c2)COCO3)c2ccc3c(c2)COCO3)CC1 [Example 4, 4-nitrophenyl 4-(bis(4H-benzo[d][1,3]dioxin-6-yl)methyl)piperazine-1-carboxylate] |  | > 10000 nM | 100 to 1000 nM |
| O=C(Oc1ccc(F)cc1)N1CCN(C(c2ccc3c(c2)COCO3)c2ccc3c(c2)COCO3)CC1 [Example 5, 4-fluorophenyl 4-(bis(4H-benzo[d][1,3]dioxin-6-yl)methyl)piperazine-1-carboxylate] | > 100 nM | > 50000 nM |  |
| O=C(Oc1ccc(Oc2ccccc2)cc1)N1CCN(C(c2ccc3c(c2)COCO3)c2ccc3c(c2)COCO3)CC1 [Example 7, 4-phenoxyphenyl 4-(bis(4H-benzo[d][1,3]dioxin-6-yl)methyl)piperazine-1-carboxylate] | > 100 nM | > 10000 nM |  |
| NC(=O)c1cccc(-c2cccc(OC(=O)NC3CCCCC3)c2)c1 [URB597, reference compound] | > 50000 nM |  |  |

The next lines start with results.

| IC50 (human recombinant MAGL; [1]) | IC50 (human recombinant FAAH) | Compound | IC50 (human recombinant MAGL) |
| --- | --- | --- | --- |
| 10 to 1000 nM | > 10000 nM | 1-(4-(di(pyridin-3-yl)methyl)piperazine-1-carbonyl)-1H-benzo[d][1,2,3]triazole-6-carbonitrile and 1-(4-(di(pyridin-3-yl)methyl)piperazine-1-carbonyl)-1H-benzo[d][1,2,3]triazole-5-carbonitrile [Example 105] |  |
| > 100 nM | > 50000 nM | O=C(N1CCN(C(c2ccc3c(c2)COCO3)c2ccc3c(c2)COCO3)CC1)n1cccn1 [Example 1, (4-(bis(4H-benzo[d][1,3]dioxin-6-yl)methyl)piperazin-1-yl)(1H-pyrazol-1-yl)methanone] |  |
| 1 to 10 nM | > 10000 nM | O=C(N1CCN(C(c2ccc3c(c2)COCO3)c2ccc3c(c2)COCO3)CC1)n1cnc(Cl)n1 [Example 2, (4-(bis(4H-benzo[d][1,3]dioxin-6-yl)methyl)piperazin-1-yl)(3-chloro-1H-1,2,4-triazol-1-yl)methanone] |  |
| > 100 nM | > 50000 nM | O=C(ON1C(=O)CCC1=O)N1CCN(C(c2ccc3c(c2)COCO3)c2ccc3c(c2)COCO3)CC1 [Example 6, 2,5-dioxopyrrolidin-1-yl 4-(bis(4H-benzo[d][1,3]dioxin-6-yl)methyl)piperazine-1-carboxylate] |  |
